Experimental data from article PMC8151276, “An Integrated Approach toward NanoBRET Tracers for Analysis of GPCR Ligand Engagement” (Molecules, 2021).
Values belong to the compound of their own block, whether it stands above or below them.

Legend:
P2RY14 = target: T1, P2RY14 (Homo sapiens, UniProt Q15391); assay: NanoBRET screen HiBiT-P2RY14 in HEK293; format: binding
T1 construct: purchased Promega (in-house HiBiT-GPCR construct library, NanoBRET)
T1 sequence (Q15391 1-338): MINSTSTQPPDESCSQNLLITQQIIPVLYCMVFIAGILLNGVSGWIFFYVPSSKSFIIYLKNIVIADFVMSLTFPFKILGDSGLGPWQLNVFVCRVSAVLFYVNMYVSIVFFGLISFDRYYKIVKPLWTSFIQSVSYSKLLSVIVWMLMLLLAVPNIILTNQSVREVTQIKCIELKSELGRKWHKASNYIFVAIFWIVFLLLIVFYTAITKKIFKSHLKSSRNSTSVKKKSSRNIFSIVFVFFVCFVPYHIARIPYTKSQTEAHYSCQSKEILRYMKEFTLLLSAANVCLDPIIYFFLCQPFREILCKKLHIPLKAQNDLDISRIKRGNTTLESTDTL
Method: (§1) Each tracer candidate was screened across the entire library of HiBiT-GPCR constructs using NanoBRET as the detection modality. As depicted in Figure 4A, the specificity of interactions was evaluated through decrease in BRET due to competitive displacement of a bound tracer by excess parental compound. Each tracer was analyzed for binding to each HiBiT-GPCR fusion in the absence and in the presence of competing parental compound. Briefly, HEK293 cells were transfected with HiBiT-GPCR constructs diluted into promoterless DNA to reduce expression and maximize translocation to the cell surface. Each tracer candidate was then screened at concentrations of 1 μM and 0.1 μM across cells expressing these fusions. Cells were treated for 1.5 h with tracer either alone or in the presence of 20 μM competing parental compound (i.e., control). BRET was measured upon addition of purified LgBiT and subsequent complementation with HiBiT genetically fused to a GPCR. The specificity of interactions was assessed through a decrease in BRET signal due to competitive displacement of the bound tracer. To further gauge the robustness of these interactions, the fold response over the control (i.e., BRETtracer/BRETcontrol) was calculated. We chose a 1.5-fold response, which translates to ≥7-fold signal over noise as the minimal threshold required to score an interaction as positive. […]. Below we highlight the screening results obtained for our exemplary fluorescent tracers based on Clozapine, Amitriptyline and AZD1283.
(§2) HiBiT-GPCR DNA constructs were diluted in 10 mM Tris pH 8 to a final concentration of 0.01 μg/μL, arrayed in 96-well plates and stored at −20 °C. For transfection, HEK293 cells were suspended in Opti-MEM (without phenol red) supplemented with 2% fetal bovine serum (Seradigm) and 100 units/mL penicillin–streptomycin (Gibco) at a final concentration of 220,000 cells/mL and dispensed into white 96-well plates at 90 μL/well. Subsequent transfections and screens were carried using an Agilent Bravo Automated Liquid Handling Platform. First, the 96-well HiBiT DNA arrays were diluted 25-fold in Opti-MEM (without serum or phenol red) to a final concentration of 0.0004 μg/μL and 20 μL of the diluted DNAs were transferred into new 96-well plates. Next, promoterless carrier DNA (1 μg/μL) was diluted 25-fold (0.04 μg/μL) and then dispensed into the diluted arrays at 20 μL/well. Following brief mixing, Viafect transfection reagent (Promega) diluted 16-fold into Opti-MEM was dispensed into the plates at 40 μL/well. After mixing by pipetting, plates were incubated for 10 min on the pipetting station deck. The DNA-transfection reagent complexes were then added to plates containing cells. To facilitate the screen, 10 μL of DNA-transfection reagent complexes were added in duplicates to the top 4 and bottom 4 rows, resulting in two identical 48-well arrays per plate. Plates with transfected cells were incubated for 18–20 h at 37 °C/5% CO2. A screen of each tracer across the entire library using two different concentrations requires duplicate plates of transfected cells. Depending on the number of tracers being screened, transfections can be scaled up using the same ratios. The next day, for each tracer, four 20× screening solutions in tracer dilution buffer (Promega) were prepared: two duplicates at final concentration of 20 μM and two duplicates at a final concentration of 2 μM. A competing unmodified compound was added to one of each duplicate at a final concentration of 400 μM. The four resulting solutions were diluted 4-fold in Opti-MEM without serum or phenol red to generate 5× solutions (5 µM and 0.5 µM tracer +/− 100 μM competing compound). To screen the library, a BioTek MultiFlo FX liquid dispenser was used to dispense 22.5 µL of tracer solution to the top 4 rows and 22.5 µL tracer + competing compound solution to the 4 bottom rows. Plates were briefly mixed on an orbital shaker and incubated for 1.5 h at room temperature. […]

GABBR2 = target: T2, GABBR2 (Homo sapiens, UniProt O75899); assay: NanoBRET screen HiBiT-GABBR2 in HEK293; format: binding
T2 construct: purchased Promega (in-house HiBiT-GPCR construct library, NanoBRET)
T2 sequence (O75899 42-941): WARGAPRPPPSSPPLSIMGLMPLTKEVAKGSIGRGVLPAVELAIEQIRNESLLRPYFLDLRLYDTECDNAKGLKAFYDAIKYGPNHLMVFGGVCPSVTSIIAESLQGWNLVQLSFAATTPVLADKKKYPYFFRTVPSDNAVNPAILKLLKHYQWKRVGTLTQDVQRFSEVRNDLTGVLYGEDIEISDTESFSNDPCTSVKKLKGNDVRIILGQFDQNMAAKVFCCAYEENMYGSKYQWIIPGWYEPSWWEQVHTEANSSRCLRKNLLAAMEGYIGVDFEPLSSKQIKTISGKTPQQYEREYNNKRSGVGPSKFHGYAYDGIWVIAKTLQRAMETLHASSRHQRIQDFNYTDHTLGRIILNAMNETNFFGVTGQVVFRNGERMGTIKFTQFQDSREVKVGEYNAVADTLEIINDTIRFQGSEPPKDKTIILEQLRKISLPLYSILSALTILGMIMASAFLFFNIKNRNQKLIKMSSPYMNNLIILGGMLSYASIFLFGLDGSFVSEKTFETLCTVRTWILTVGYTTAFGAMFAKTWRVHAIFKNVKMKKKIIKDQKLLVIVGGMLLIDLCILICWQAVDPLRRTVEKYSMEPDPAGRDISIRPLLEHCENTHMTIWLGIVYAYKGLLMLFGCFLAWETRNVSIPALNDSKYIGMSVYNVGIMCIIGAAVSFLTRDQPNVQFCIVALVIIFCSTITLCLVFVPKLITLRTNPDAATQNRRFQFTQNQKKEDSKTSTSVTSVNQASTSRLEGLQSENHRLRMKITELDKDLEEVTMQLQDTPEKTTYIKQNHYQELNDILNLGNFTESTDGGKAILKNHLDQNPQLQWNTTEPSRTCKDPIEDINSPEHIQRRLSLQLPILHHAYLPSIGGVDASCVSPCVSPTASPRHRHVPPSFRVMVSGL
Method: as §1, §2

[1] = tracer at 0.1μM, listed as amitriptyline-b-2-NB590
[2] = tracer at 1μM, listed as amitriptyline-b-2-NB590

NanoBRET Fold Response (P2RY14; P2RY14, 0.1μM): 1.14
NanoBRET Fold Response (P2RY14; P2RY14, 1μM): 1.18
NanoBRET Fold Response (GABBR2; GABBR2, 0.1μM): 0.89
NanoBRET Fold Response (GABBR2; GABBR2, 1μM): 1.01
Compound: CCOC(=O)c1cc(C#N)c(N2CCC(C(=O)NS(=O)(=O)Cc3ccccc3/C=C/C(=O)NCCNC(=O)CCc3ccc4n3[B-](F)(F)[N+]3=C(c5ccc[nH]5)C=CC3=C4)CC2)nc1C [AZD1283-1-NB590]

NanoBRET Fold Response (P2RY14; P2RY14, tracer 0.1μM): 0.98
NanoBRET Fold Response (P2RY14; P2RY14, tracer 1μM): 0.91
NanoBRET Fold Response (GABBR2; GABBR2, tracer 0.1μM): 1.03
NanoBRET Fold Response (GABBR2; GABBR2, tracer 1μM): 0.94
Compound: N#CN=C(NCCCOc1cccc(CN2CCCCC2)c1)NCCNC(=O)CCOCCOCCOCCOCCNC(=O)CCc1ccc2n1[B-](F)(F)[N+]1=C(c3ccc[nH]3)C=CC1=C2 [Aminopotentidine-2-NB590]

Compound: CN(C)CCC=C1c2ccccc2CCc2ccc(C(=O)NCCNC(=O)CCOCCOCCOCCOCCNC(=O)CCc3ccc4n3[B-](F)(F)[N+]3=C(c5ccc[nH]5)C=CC3=C4)cc21 [Amitriptyline-a-2-NB590]
NanoBRET Fold Response (P2RY14; tracer at 1μM): 1.09
NanoBRET Fold Response (GABBR2; tracer at 0.1μM): 1.08
NanoBRET Fold Response (GABBR2; tracer at 1μM): 0.95

Compound: CN(C)CCC=C1c2ccccc2CCc2ccc(C(=O)NCCNC(=O)CCOCCOCCOCCOCCNC(=O)CCc3ccc4n3[B-](F)(F)[N+]3=C(c5ccc[nH]5)C=CC3=C4)cc21 [Amitriptyline-b-2-NB590]
NanoBRET Fold Response (P2RY14; [1]): 1.12
NanoBRET Fold Response (P2RY14; [2]): 0.77
NanoBRET Fold Response (GABBR2; [1]): 1.13
NanoBRET Fold Response (GABBR2; [2]): 1.30

Compound: CN(CCC=C1c2ccccc2CCc2ccccc21)C(=O)CCOCCOCCOCCOCCNC(=O)CCc1ccc2n1[B-](F)(F)[N+]1=C(c3ccc[nH]3)C=CC1=C2 [Amitriptyline-e-2-NB590]
NanoBRET Fold Response (P2RY14; tracer at 1μM): 1.03
NanoBRET Fold Response (GABBR2; tracer at 1μM): 1.08

NanoBRET Fold Response (P2RY14; 0.1μM tracer): 0.98
NanoBRET Fold Response (P2RY14; 1μM tracer): 0.98
NanoBRET Fold Response (GABBR2; 0.1μM tracer): 0.96
NanoBRET Fold Response (GABBR2; 1μM tracer): 0.96
Compound: COc1ccc2c(n1)c(CCNC(C)=O)cn2CCNC(=O)CCc1ccc2n1[B-](F)(F)[N+]1=C(c3ccc[nH]3)C=CC1=C2 [Azamelatonin-1-NB590]

NanoBRET Fold Response (P2RY14; 0.1μM tracer): 1.21
NanoBRET Fold Response (P2RY14; 1μM tracer): 1.13
NanoBRET Fold Response (GABBR2; 0.1μM tracer): 0.87
NanoBRET Fold Response (GABBR2; 1μM tracer): 1.13
Compound: COc1ccc2[nH]c(-c3ccc(CNC(=O)CCOCCOCCOCCOCCNC(=O)CCc4ccc5n4[B-](F)(F)[N+]4=C(c6ccc[nH]6)C=CC4=C5)cc3)c(CCNC(C)=O)c2n1 [AzomelatoninICO9-2-NB590]

NanoBRET Fold Response (P2RY14; P2RY14, 0.1μM tracer): 1.07
NanoBRET Fold Response (P2RY14; P2RY14, 1μM tracer): 0.84
NanoBRET Fold Response (GABBR2; GABBR2, 0.1μM tracer): 1.07
NanoBRET Fold Response (GABBR2; GABBR2, 1μM tracer): 0.80
Compound: O=C(CCOCCOCCOCCOCCNC(=O)CCc1ccc2n1[B-](F)(F)[N+]1=C(c3ccc[nH]3)C=CC1=C2)NCCCN1CCN(C2=Nc3cc(Cl)ccc3Nc3ccccc32)CC1 [Clozapine-a-2-NB590]
